Data as given in patent publication US20250099420A1, “SMALL MOLECULE MODULATORS OF GPR139 COMPLEX” (University of Florida Research Foundation, Incorporated, priority 2022, published 2025).
Read-outs that look alike come from different tables or passages of the source.

Tests used:
GPR139 = molecular target: T1, GPR139 (Homo sapiens, UniProt Q6DWJ6); experiment: GPR139 Agonist titration / agonist counterscreen assay (calcium detection, HEK-GPR139 cells); assay type: cell-based; set-up: expressed in transfected cells; host or cells: HEK Aequorin cells, Maxcyte transient transfection; settings: GPR139 Agonist Activity; for EC50: read-out: EC50; for Averaged Max % Response (±St. Dev.): activity relative to known control
T1 sequence (Q6DWJ6 1-353): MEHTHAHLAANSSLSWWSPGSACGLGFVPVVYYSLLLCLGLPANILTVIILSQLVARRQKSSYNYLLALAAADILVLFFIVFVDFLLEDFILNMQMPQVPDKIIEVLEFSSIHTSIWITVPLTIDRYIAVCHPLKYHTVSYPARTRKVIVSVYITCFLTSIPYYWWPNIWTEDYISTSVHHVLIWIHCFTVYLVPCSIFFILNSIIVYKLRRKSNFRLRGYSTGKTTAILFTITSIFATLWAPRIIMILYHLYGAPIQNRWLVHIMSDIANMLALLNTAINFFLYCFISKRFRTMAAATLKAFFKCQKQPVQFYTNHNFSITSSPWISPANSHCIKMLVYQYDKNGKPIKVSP
Method: GPR activity was assessed using a calcium detection assay. […] Negative control samples were treated with DMSO. […] Intracellular calcium was measured using Calcium 5.

parental HEK cells = experiment: HEK parental Agonist Counterscreen Assay (non-transfected cells); assay type: cell-based; settings: for Averaged Max % Response (±St. Dev.): activity relative to known control
From the text: The high control for the agonist counterscreen was Forskolin not acetylcholine.

[1] = HEK Agonist Activity section of Table 4 (parental HEK counterscreen)
[2] = Homo sapiens, HEK293, HEK Agonist Activity section of Table 4 (parental HEK counterscreen)
[3] = values printed in E-notation without unit

| Compound | Efficiency Ligand (GPR139) | Hill Slope (GPR139) | Lipophilic Efficiency (logD) (GPR139) | Lipophilic Efficiency (logP) (GPR139) | EC50 (GPR139; HEK-GPR139 cells) [nM] | Averaged Max % Response (±St. Dev.) (GPR139) [%] | Lipophilic Efficiency (logD) (parental HEK cells; HEK Agonist Activity section) | Lipophilic Efficiency (logP) (parental HEK cells; HEK Agonist Activity section) | Lipophilic Efficiency (logD) (GPR139; based on logD) | Lipophilic Efficiency (logP) (GPR139; based on logP) | Hill Slope (GPR139; fitted dose-response curve) | Efficiency Ligand (GPR139; ligand efficiency) | EC50 (GPR139; [3]) [nM] | Lipophilic Efficiency (logD) (parental HEK cells; HEK Agonist Activity) | Lipophilic Efficiency (logP) (parental HEK cells; HEK Agonist Activity) | EC50 (parental HEK cells; [1]) [nM] | Averaged Max % Response (±St. Dev.) (parental HEK cells; HEK Agonist Activity section) [%] | EC50 (parental HEK cells; [2]) [nM] | Averaged Max % Response (±St. Dev.) (parental HEK cells; HEK Agonist Activity) [%] | EC50 (parental HEK cells; Homo sapiens, HEK293, HEK Agonist Activity, parental non-transfected HEK cells) [nM] |
| --- | --- | --- | --- | --- | --- | --- | --- | --- | --- | --- | --- | --- | --- | --- | --- | --- | --- | --- | --- | --- |
| NC1=NC(=O)/C(=C\c2ccc(Cl)cc2Cl)S1 [SR-01000310833] | 0.56 | 0.71 | 3.32 | 3.32 | 407 | 80.08 ± 5.83 | 1.78 | 1.78 |  |  |  |  |  |  |  | > 14100 | 13.95 ± 0.93 |  |  |  |
| COc1ccc(CC(=O)NNC(=O)C(C)Oc2ccc(Cl)cc2Cl)cc1OC (stereo not drawn) [SR-01000312779] | 0.30 | 1.91 | 2.77 | 2.74 | 1200 | 81.17 ± 17.61 | 1.69 | 1.66 |  |  |  |  |  |  |  |  | 13.34 ± 1.65 | > 14100 |  |  |
| Cc1ccc(CCC(=O)NNC(=O)CCc2ccccc2)c(Br)c1 [SR-01000313193] | 0.36 | 1.19 | 2.69 | 2.69 | 719 | 90.41 ± 15.26 | 1.40 | 1.39 |  |  |  |  |  |  |  |  | 8.61 ± 6.03 | > 14100 |  |  |
| O=C(NCCCn1ccnc1)c1cc2nc3c(c(C(F)(F)F)n2n1)CCc1ccccc1-3 [SR-01000313440] | 0.28 | 1.29 | 3.07 | 3.01 | 332 | 84.05 ± 13.31 | 1.45 | 1.38 |  |  |  |  |  |  |  |  | 0.31 ± 4.15 | > 14100 |  |  |
| O=C(CCc1ccccc1)NNC(=O)C12CC3CC(CC(C3)C1)C2 [SR-01000314474] | 0.37 | 2.04 | 3.13 | 3.13 | 401 | 90.74 ± 17.54 | 1.59 | 1.59 |  |  |  |  |  |  |  |  | −0.07 ± 5.01 | > 14100 |  |  |
| O=C(COc1ccc2ccccc2c1)NNC(=O)Cc1cccc2ccccc12 [SR-01000316766] |  |  |  |  |  | 101.45 ± 17.20 | 1.14 | 1.14 | 3.15 | 3.15 | 1.07 | 0.33 | 138 |  |  |  | −0.94 ± 3.21 | > 14100 |  |  |

More lines, main results first:

| Efficiency Ligand (GPR139) | Hill Slope (GPR139) | Lipophilic Efficiency (logD) (GPR139) | Lipophilic Efficiency (logP) (GPR139) | EC50 (GPR139; HEK-GPR139 cells) [nM] | Averaged Max % Response (±St. Dev.) (GPR139) [%] | Lipophilic Efficiency (logD) (parental HEK cells; HEK Agonist Activity section) | Lipophilic Efficiency (logP) (parental HEK cells; HEK Agonist Activity section) | Lipophilic Efficiency (logD) (GPR139; based on logD) | Lipophilic Efficiency (logP) (GPR139; based on logP) | Hill Slope (GPR139; fitted dose-response curve) | Efficiency Ligand (GPR139; ligand efficiency) | EC50 (GPR139; [3]) [nM] | Lipophilic Efficiency (logD) (parental HEK cells; HEK Agonist Activity) | Lipophilic Efficiency (logP) (parental HEK cells; HEK Agonist Activity) | Compound | EC50 (parental HEK cells; [1]) [nM] | Averaged Max % Response (±St. Dev.) (parental HEK cells; HEK Agonist Activity section) [%] | EC50 (parental HEK cells; [2]) [nM] | Averaged Max % Response (±St. Dev.) (parental HEK cells; HEK Agonist Activity) [%] | EC50 (parental HEK cells; Homo sapiens, HEK293, HEK Agonist Activity, parental non-transfected HEK cells) [nM] |
| --- | --- | --- | --- | --- | --- | --- | --- | --- | --- | --- | --- | --- | --- | --- | --- | --- | --- | --- | --- | --- |
| 0.46 | 1.19 | 3.90 | 3.86 | 580 | 86.53 ± 11.45 | 2.52 | 2.48 |  |  |  |  |  |  |  | CCC(=O)NNC(=O)C(C)Oc1ccc(Cl)cc1Cl (stereo not drawn) [SR-01000316982] |  | 2.44 ± 4.96 | > 14100 |  |  |
|  |  |  |  |  | 114.27 ± 15.21 |  |  | 4.70 | 4.70 | 1.01 | 0.44 | 12.3 | 1.64 | 1.64 | Cc1cc(Cl)ccc1OCC(=O)NNC(=O)C1CC1c1ccccc1 (stereo not drawn) [SR-01000317486] |  |  |  | 3.86 ± 3.87 | > 14100 |
|  |  |  |  |  | 90.09 ± 14.61 | 1.19 | 1.15 | 3.32 | 3.28 | 1.08 | 0.38 | 103 |  |  | Cc1cccc(OCC(=O)NNC(=O)C(C)Oc2ccc(Cl)cc2Cl)c1 (stereo not drawn) [SR-01000318010] | > 14100 | 12.20 ± 3.74 |  |  |  |
|  |  |  |  |  | 102.46 ± 8.64 | 1.96 | 1.94 | 3.78 | 3.77 | 0.56 | 0.30 | 210 |  |  | N#C/C(=C/c1ccc(CNS(=O)(=O)c2ccccc2)o1)C(=O)NCCc1ccccc1 [SR-01000318079] | > 14100 | 11.69 ± 6.13 |  |  |  |
| 0.36 | 1.01 | 3.49 | 3.49 | 656 | 76.40 ± 3.97 | 2.16 | 2.16 |  |  |  |  |  |  |  | Cc1c(Cl)c([N+](=O)[O-])nn1CC(=O)NC(C)COc1ccccc1 (stereo not drawn) [SR-01000318171] |  | 6.88 ± 5.68 | > 14100 |  |  |
| 0.36 | 0.97 | 2.40 | 2.39 | 1200 | 72.38 ± 5.96 | 1.31 | 1.30 |  |  |  |  |  |  |  | Cc1cc(Br)ccc1OCC(=O)NNC(=O)c1ccccc1C [SR-01000318521] |  | 6.11 ± 9.12 | > 14100 |  |  |
|  |  |  |  |  | 97.49 ± 3.70 | 2.60 | 2.54 | 4.59 | 4.53 | 0.88 | 0.42 | 143 |  |  | CC(Oc1ccc(Cl)cc1Cl)C(=O)NNC(=O)c1ccncc1 (stereo not drawn) [SR-01000319951] |  | 7.14 ± 13.31 | > 14100 |  |  |
| 0.56 | 0.93 | 5.53 | 2.98 | 930 | 65.23 ± 8.63 | 4.35 | 1.80 |  |  |  |  |  |  |  | O=C(O)CC1CCCC1c1ccccc1 (stereo not drawn) [SR-01000320687] |  | 17.26 ± 6.30 | > 14100 |  |  |
| 0.29 | 0.69 | 3.27 | 3.22 | 2300 | 66.69 ± 11.44 | 2.48 | 2.44 |  |  |  |  |  |  |  | COc1ccccc1NC(=O)C(=O)NNC(=O)COc1ccc(Br)cc1C [SR-01000325257] |  | −2.80 ± 2.96 | > 14100 |  |  |
